The results in this text go back to BindingDB's records for doi:10.1021/jo015665d (Merck Research Laboratories, 2001).

The experiment addresses Polymerase acidic protein (Influenza A virus (strain A/Puerto Rico/8/1934 H1N1), UniProt P03433). The experiment in a line: Inhibition of cap 1 ALMV primed Influenza transcriptase.

Take `COCOn1c(=O)c(=CC(C)C)[nH]c(=CC(C)C)c1=O` [(3Z)-5-isobutyl-1-(methoxymethoxy)-3-(2-methylpropylidene)pyrazine-2,6(1H,3H)-dione]: the IC50 (commonly the concentration that gives 50% inhibition) is over 200 µM. `COCOn1c(=O)c(=Cc2ccccc2F)[nH]c(=CC(C)C)c1=O` showed a half-inhibitory concentration (IC50) of over 200 µM. Turning to `COCOn1c(=O)c(=Cc2cccc(F)c2)[nH]c(=CC(C)C)c1=O`, the IC50 is over 200 µM. The molecule `COCOn1c(=O)c(=Cc2ccc(F)cc2)[nH]c(=CC(C)C)c1=O` gave a 50% inhibitory concentration (IC50) of over 200 µM. With `CC(C)C=c1[nH]c(=Cc2ccc(F)cc2)c(=O)[nH]c1=O` [3-(4-fluorobenzylidene)-5-isobutylpyrazine-2,6(1H,3H)-dione] the figure was over 200 µM. In the case of `COCOn1c(=O)c(=Cc2ccccc2)[nH]c(=Cc2ccc(F)cc2)c1=O` it was over 200 µM; in that of `COCOn1c(=O)c(=Cc2ccccc2)[nH]c(=CC(C)C)c1=O`, over 200 µM.

In turn, `COCOn1c(=O)c(=Cc2ccccc2)[nH]c(=Cc2ccc(OC)cc2)c1=O` gave a 50% inhibitory concentration (IC50) of over 200 µM. Molecule `COCOn1c(=O)c(=Cc2ccc(OC)cc2)[nH]c(=CC(C)C)c1=O` registered an IC50 of over 200 µM.
